Test results reported in PMC7659177 (ACS omega, 2020).

Biological target: IP3R1 (HEK-IP3R1 cells) (Rattus norvegicus, UniProt P29994)
Assay: Ca2+ release from stores of permeabilized cells, Mag-fluo […]
Type: cell-based

IP3R1 (HEK-IP3R1 cells), sequence (P29994 whole entry): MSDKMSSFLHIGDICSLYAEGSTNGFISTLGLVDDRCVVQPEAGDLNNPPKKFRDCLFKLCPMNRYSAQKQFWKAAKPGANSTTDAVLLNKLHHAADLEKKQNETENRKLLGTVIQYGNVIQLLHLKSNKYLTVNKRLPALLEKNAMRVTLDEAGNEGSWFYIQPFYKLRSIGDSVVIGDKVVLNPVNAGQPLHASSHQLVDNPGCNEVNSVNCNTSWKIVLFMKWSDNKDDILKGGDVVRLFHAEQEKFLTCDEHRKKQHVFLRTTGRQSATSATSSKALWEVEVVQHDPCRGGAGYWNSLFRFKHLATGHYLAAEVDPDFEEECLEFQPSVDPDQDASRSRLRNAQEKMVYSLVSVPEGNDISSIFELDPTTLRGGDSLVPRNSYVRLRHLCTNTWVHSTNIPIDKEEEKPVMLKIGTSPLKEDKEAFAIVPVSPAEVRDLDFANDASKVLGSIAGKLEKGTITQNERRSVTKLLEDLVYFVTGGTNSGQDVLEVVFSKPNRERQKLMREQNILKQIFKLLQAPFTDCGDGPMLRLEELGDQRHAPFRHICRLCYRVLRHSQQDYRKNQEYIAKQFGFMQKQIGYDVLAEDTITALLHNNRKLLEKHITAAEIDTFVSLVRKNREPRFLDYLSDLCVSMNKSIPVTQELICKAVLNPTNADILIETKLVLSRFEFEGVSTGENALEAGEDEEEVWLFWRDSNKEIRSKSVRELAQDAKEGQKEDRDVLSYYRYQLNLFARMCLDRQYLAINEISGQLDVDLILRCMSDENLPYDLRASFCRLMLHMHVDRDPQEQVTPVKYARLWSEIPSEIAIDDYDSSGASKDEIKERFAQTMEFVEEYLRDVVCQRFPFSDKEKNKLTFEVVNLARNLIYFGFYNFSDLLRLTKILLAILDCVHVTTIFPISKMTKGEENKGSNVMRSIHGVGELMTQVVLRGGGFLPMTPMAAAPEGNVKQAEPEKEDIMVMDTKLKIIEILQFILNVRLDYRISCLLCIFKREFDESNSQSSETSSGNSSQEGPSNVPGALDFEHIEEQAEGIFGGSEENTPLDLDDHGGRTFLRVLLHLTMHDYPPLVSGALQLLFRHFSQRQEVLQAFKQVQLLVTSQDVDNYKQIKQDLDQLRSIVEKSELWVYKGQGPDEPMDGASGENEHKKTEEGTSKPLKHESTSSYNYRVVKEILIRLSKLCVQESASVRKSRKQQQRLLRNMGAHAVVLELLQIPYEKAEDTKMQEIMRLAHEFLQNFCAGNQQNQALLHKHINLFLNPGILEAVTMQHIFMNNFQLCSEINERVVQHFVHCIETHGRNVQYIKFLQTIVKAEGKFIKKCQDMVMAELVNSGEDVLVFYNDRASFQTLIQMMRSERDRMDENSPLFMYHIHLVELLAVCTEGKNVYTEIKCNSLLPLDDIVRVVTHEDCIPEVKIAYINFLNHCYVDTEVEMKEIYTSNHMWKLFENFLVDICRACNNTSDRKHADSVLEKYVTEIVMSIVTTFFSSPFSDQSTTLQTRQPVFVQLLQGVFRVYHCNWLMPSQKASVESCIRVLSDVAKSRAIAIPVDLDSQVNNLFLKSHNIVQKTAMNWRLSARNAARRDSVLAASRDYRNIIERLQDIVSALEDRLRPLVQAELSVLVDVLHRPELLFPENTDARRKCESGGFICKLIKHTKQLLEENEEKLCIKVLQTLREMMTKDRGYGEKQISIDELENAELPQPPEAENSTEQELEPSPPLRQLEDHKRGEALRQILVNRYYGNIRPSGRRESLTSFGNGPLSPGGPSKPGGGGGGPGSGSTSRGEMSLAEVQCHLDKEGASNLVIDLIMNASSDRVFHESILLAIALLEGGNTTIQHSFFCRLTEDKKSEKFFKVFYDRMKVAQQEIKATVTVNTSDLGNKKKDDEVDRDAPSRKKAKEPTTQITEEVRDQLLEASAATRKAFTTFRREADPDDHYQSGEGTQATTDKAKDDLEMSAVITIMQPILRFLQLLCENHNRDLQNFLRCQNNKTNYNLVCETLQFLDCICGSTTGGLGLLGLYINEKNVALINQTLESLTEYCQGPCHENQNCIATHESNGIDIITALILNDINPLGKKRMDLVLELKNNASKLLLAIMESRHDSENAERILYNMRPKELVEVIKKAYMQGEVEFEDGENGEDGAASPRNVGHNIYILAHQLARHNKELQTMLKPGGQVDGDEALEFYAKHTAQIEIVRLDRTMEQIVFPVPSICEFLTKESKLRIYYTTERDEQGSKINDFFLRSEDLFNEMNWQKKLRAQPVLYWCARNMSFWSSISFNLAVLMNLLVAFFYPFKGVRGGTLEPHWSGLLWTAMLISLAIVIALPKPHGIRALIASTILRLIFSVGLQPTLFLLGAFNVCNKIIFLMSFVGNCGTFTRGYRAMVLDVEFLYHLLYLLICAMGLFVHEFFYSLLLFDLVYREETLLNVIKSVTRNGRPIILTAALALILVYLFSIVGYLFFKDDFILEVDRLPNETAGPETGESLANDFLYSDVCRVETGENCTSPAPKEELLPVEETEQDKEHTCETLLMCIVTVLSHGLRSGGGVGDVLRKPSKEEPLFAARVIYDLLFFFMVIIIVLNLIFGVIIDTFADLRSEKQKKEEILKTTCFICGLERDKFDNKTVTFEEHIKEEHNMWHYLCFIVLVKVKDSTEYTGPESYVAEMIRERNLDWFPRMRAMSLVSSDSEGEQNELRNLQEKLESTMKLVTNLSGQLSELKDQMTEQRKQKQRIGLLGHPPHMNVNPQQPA

Nc1ncnc2c1ncn2[C@@H]1O[C@H](CO)[C@@H](O[C@H]2[C@H](O)[C@H](O)[C@@H](OP(=O)(O)O)[C@H](OP(=O)(O)O)[C@H]2O)[C@H]1OP(=O)(O)O [compound 5, 3' -O-(1″ -D-chiro-Inosityl)adenosine 2’, 3″, 4″ -trisphosphate]
EC50: 0.022 µM
